Experimental data: ChEMBL document CHEMBL1955866, “New cyclic peptides with osteoblastic proliferative activity from Dianthus superbus” (Bioorg Med Chem Lett, 2012)
Where a SMILES comes first, the peptide text is derived from it.

Assays:
Format in all cases: functional, cell-based
[1] = Osteoblastic proliferative activity in […] MC3T3-E1 cells at 10^-2 mM by MTT assay
[2] = Osteoblastic proliferative activity in […] MC3T3-E1 cells at 10^-3 mM by MTT assay
[3] = Osteoblastic proliferative activity in rat MC3T3-E1 cells at 10^-4 mM by MTT assay
[4] = Osteoblastic proliferative activity in […] MC3T3-E1 cells at 10^-5 mM by MTT assay
[5] = Osteoblastic proliferative activity in […] MC3T3-E1 cells at 10^-6 mM by MTT assay

Row | Structure (SMILES) | Activity [1] [%] | Activity [2] [%] | Activity [3] [%] | Activity [4] [%] | Activity [5] [%]
1 | [F-].[Na+] | 46.2 | – | – | – | –
2 | CC(C)C[C@@H]1NC(=O)[C@H]([C@@H](C)O)NC(=O)[C@H](CC(C)C)NC(=O)[C@@H]2CCCN2C(=O)CNC(=O)[C@H](Cc2ccccc2)NC1=O (cyclo(FGPLTL)) | 13.7 | 3.9 | 21.7 | 38.2 | 25.4
3 | CC[C@H](C)[C@@H]1NC(=O)[C@H]([C@@H](C)O)NC(=O)[C@H](C(C)C)NC(=O)[C@@H]2CCCN2C(=O)CNC(=O)[C@H](Cc2ccccc2)NC1=O (cyclo(FGPVTI)) | 22.5 | 17 | 26.3 | 33.9 | 17.2
